The values below come from publication PMC5404532, “Simplified Reversed Chloroquines To Overcome Malaria Resistance to Quinoline-Based Drugs” (Antimicrobial Agents and Chemotherapy, 2017).

Where two headings read alike, the source gives them in different places.

The subject of one series is P. falciparum Dd2 (CQR). In words: Inhibition of P. falciparum growth, CQR Dd2 (SYBR green I fluorescence). The format is cell-based. The text has this:
(§1) Inhibition of P. falciparum growth.
(§2) CQS (D6) and CQR (Dd2 and 7G8) P. falciparum maintained continuously in culture were used ([38]). […] The fluorescence readings were plotted against log(drug), and the IC50s were obtained from curve fitting performed by nonlinear regression using either Prism (GraphPad) or Excel (Microsoft) software.

The subject of a further series is P. falciparum D6 (CQS). Nature of the series: Inhibition of P. falciparum growth, CQS D6 (SYBR green I fluorescence). It counts as cell-based.
Text: as §1, §2

The test system of a further series is P. falciparum 7G8 (CQR). Nature of the series: Inhibition of P. falciparum growth, CQR 7G8 (SYBR green I fluorescence). It counts as cell-based, Plasmodium falciparum.
Text: as §1, §2

In the next series the test system is mouse spleen lymphocytes. Nature of the series: Cytotoxicity against mouse spleen lymphocytes. The format is cell-based. Conditions: estimated ±50%.
Series [1] in a line: Single-dose toxicity evaluation in mice. The format is in vivo. The settings on record: single-dose experiments on 1 or 2 mice/compound; doses limited by water solubility. On the procedure:
The compounds were first converted to water-soluble hydrochloride or phosphate salts for administration in aqueous solution. Efficacy testing was carried out using 4 different dose levels with 5 mice at each level, administered by oral gavage. […] A single-dose toxicity evaluation was also performed, using 1 or 2 mice in each case.

Another series relates to P. yoelii. In words: In vivo 3-day suppressive test against P. yoelii in a murine malaria model. Conditions: mice, oral gavage, 3 daily doses, water-soluble hydrochloride or phosphate salts; errors estimated ±20%. Further details: species or system Plasmodium yoelii. On the procedure:
A selection of the compounds (compounds 9, 10, 12, 21, 23, and 24) was tested in vivo against P. yoelii in a murine malaria model. The compounds were first converted to water-soluble hydrochloride or phosphate salts for administration in aqueous solution. Efficacy testing was carried out using 4 different dose levels with 5 mice at each level, administered by oral gavage. […] A single-dose toxicity evaluation was also performed, using 1 or 2 mice in each case. The doses were limited by water solubilities.
In vivo 3-day suppressive test.
Female CF-1 mice, at 4 to 5 weeks of age, were injected intravenously with 10^6 erythrocytes infected with P. yoelii ([43][–][45]). The following day, and then daily for a total of 3 doses, 5 mice each were administered the appropriate dose of the compound by gavage and evaluated by direct microscopic analysis of Giemsa-stained blood smears ([46]) 1 day after the final dose. The Portland State University Institutional Animal Care and Use Committee approved the protocols involving animals used in this study.

Series [2] can be described thus: In vitro heme binding (optical titration). The settings on record: 5 μM heme, phosphate buffer 100 mM, pH 5.7; read-out: heme binding dissociation constant (Kd). As for the experimental part:
In vitro heme binding and β-hematin inhibition.
A 5 mM stock solution of heme was prepared by dissolving heme chloride in 0.1 mM NaOH by incubation at 37°C for 30 min. The solution was stored at 4°C for no more than 1 month. At the beginning of each experiment, the stock heme solution was diluted to 5 μM in phosphate buffer (100 mM, pH 5.7) and allowed to equilibrate for 4 h. The 4-h equilibration allowed for the initial heme absorbance to stabilize prior to beginning the titration. Optical titrations with each compound were performed by successive addition of aliquots of its stock solution to the 5 μM heme solution. […] Equilibrium binding constants were determined by nonlinear least-squares analysis ([39]).

[3] abbreviates: Plasmodium falciparum, DD2, 72 h; read-out: IC50 (nM) for P. falciparum Dd2.
Setting [4] is: Plasmodium falciparum, D6, 72 h; read-out: IC50 (nM) for P. falciparum D6.
[5] abbreviates: Plasmodium falciparum, 7G8, 72 h, read-out: IC50 (nM) for P. falciparum 7G8.

One may read the IC50 as the midpoint of a concentration-inhibition curve. As usually defined, the ED50 is the midpoint of the dose-response relation. By Kd is commonly meant the equilibrium constant for the complex coming apart.

Take `CCN(CC)CCCC(C)Nc1ccnc2cc(Cl)ccc12` (stereo not shown) [CQ, chloroquine]: the IC50 was determined as 102 nM in the series with P. falciparum Dd2 (CQR) (Plasmodium falciparum, DD2, 72 h, read-out: IC50 (nM) for P. falciparum Dd2); 71.7 nM with P. falciparum Dd2 (CQR) (Plasmodium falciparum, DD2, read-out: IC50 from dose-response curve against CQR Dd2 (Fig 4b)); 6.9 nM with P. falciparum D6 (CQS) (Plasmodium falciparum, D6, 72 h, read-out: IC50 (nM) for P. falciparum D6); 7.9 nM in the series with P. falciparum D6 (CQS) (Plasmodium falciparum, D6, read-out: IC50 from dose-response curve against CQS D6 (Fig 4a)); 106 nM in the series with P. falciparum 7G8 (CQR) (Plasmodium falciparum, 7G8, 72 h, read-out: IC50 (nM) for P. falciparum 7G8, CQR 7G8, 72 h, averages from at least 3 runs, normalized to CQ 108 nM, uncertainty ±15%); 108 nM with P. falciparum 7G8 (CQR) (read-out: IC50 (nM) for P. falciparum 7G8, CQR 7G8, 72 h, averages from at least 3 runs, normalized to CQ 108 nM, uncertainty ±15%).
As to `Clc1ccc2c(NCCCN3CCN(c4ccccc4-c4ccccc4)CC3)ccnc2c1` [Compound 6, N-(3-(4-(Biphenyl-2-yl)piperazin-1-yl)propyl)-7-chloroquinolin-4-amine], the values for the IC50 in the series on P. falciparum Dd2 (CQR) (setting [3]) and in the series on P. falciparum D6 (CQS) (setting [4]) were 2.6 nM and 1.2 nM, respectively. In addition, the Cytotoxicity in the series on mouse spleen lymphocytes was 1,700 nM.
With `Clc1ccc2c(NCCCN3CCN(c4cccc(-c5ccccc5)c4)CC3)ccnc2c1` [Compound 7, N-(3-(4-(Biphenyl-3-yl)piperazin-1-yl)propyl)-7-chloroquinolin-4-amine], the values for the IC50 with P. falciparum Dd2 (CQR) (setting [3]) and in the series with P. falciparum D6 (CQS) (setting [4]) were 1.8 nM and 0.9 nM, respectively. The Cytotoxicity in the series with mouse spleen lymphocytes is reported as 2,100 nM.
As for `Clc1ccc2c(NCCCN3CCN(c4ccc(-c5ccccc5)cc4)CC3)ccnc2c1` [Compound 8, N-(3-(4-(Biphenyl-4-yl)piperazin-1-yl)propyl)-7-chloroquinolin-4-amine], the concentration for half-maximal inhibition (IC50) was 0.9 nM in the series with P. falciparum Dd2 (CQR) (setting [3]); 0.7 nM in the series with P. falciparum Dd2 (CQR) (Plasmodium falciparum, DD2; read-out: IC50 from dose-response curve against CQR Dd2 (Fig 4b)); 0.6 nM with P. falciparum D6 (CQS) (setting [4]); 0.7 nM in the series with P. falciparum D6 (CQS) (Plasmodium falciparum, D6; read-out: IC50 from dose-response curve against CQS D6 (Fig 4a)); 0.2 nM in the series on P. falciparum 7G8 (CQR) (setting [5]). Further, in the series with mouse spleen lymphocytes, the Cytotoxicity is given as 2,200 nM.
Turning to `Clc1ccc(N2CCN(CCCNc3ccnc4cc(Cl)ccc34)CC2)cc1` [Compound 10, 7-Chloro-N-(3-(4-(4-chlorophenyl)piperazin-1-yl)propyl)quinolin-4-amine], the IC50 was 0.5 nM in the series with P. falciparum Dd2 (CQR) (setting [3]), 0.3 nM in the series on P. falciparum D6 (CQS) (setting [4]) and 0.1 nM with P. falciparum 7G8 (CQR) (setting [5]). In addition, in series [1], the Toxicity observation result is given as “Death at 260 mg/kg, delayed death of 2/4 mice at 64 mg/kg”. For the same compound, the ED50 in the series with P. yoelii is reported as 8 mg/kg/day.
In the case of `Fc1ccc(N2CCN(CCCNc3ccnc4cc(Cl)ccc34)CC2)cc1` [Compound 11, 7-Chloro-N-(3-(4-(4-fluorophenyl)piperazin-1-yl)propyl)quinolin-4-amine], the dissociation constant (Kd) in series [2] was approximately 5000 nM. In addition, the values for the concentration for half-maximal inhibition (IC50) in the series with P. falciparum Dd2 (CQR) (setting [3]), with P. falciparum D6 (CQS) (setting [4]) and with P. falciparum 7G8 (CQR) (setting [5]) were 0.2 nM, 2 nM and 0.2 nM, respectively.
Regarding `FC(F)(F)c1ccc(N2CCN(CCCNc3ccnc4cc(Cl)ccc34)CC2)cc1` [Compound 13, 7-Chloro-N-(3-(4-(4-(trifluoromethyl)phenyl)piperazin-1-yl)propyl)quinolin-4-amine], in series [2], the Kd is approximately 5000 nM. In addition, the figures for the IC50 with P. falciparum Dd2 (CQR) (setting [3]), with P. falciparum D6 (CQS) (setting [4]) and in the series with P. falciparum 7G8 (CQR) (setting [5]) were 0.2 nM, 0.06 nM and 0.3 nM, respectively.
As to `O=[N+]([O-])c1ccc(N2CCN(CCCNc3ccnc4cc(Cl)ccc34)CC2)cc1` [Compound 14, 7-Chloro-N-(3-(4-(4-nitrophenyl)piperazin-1-yl)propyl)quinolin-4-amine], the half-inhibitory concentration (IC50) stood at 0.8 nM in the series with P. falciparum Dd2 (CQR) (setting [3]), 0.9 nM in the series on P. falciparum D6 (CQS) (setting [4]) and 0.3 nM in the series with P. falciparum 7G8 (CQR) (setting [5]).
Regarding `Cc1ccc(N2CCN(CCCNc3ccnc4cc(Cl)ccc34)CC2)cc1` [Compound 15, 7-Chloro-N-(3-(4-p-tolylpiperazin-1-yl)propyl)quinolin-4-amine], the IC50 with P. falciparum Dd2 (CQR) (setting [3]) amounted to 1.3 nM; with P. falciparum D6 (CQS) (setting [4]) it was 0.1 nM; with P. falciparum 7G8 (CQR) (setting [5]) it was 0.5 nM.
For `Clc1ccc2c(NCCCN3CCN(Cc4ccccc4)CC3)ccnc2c1` [Compound 17, N-(3-(4-Benzylpiperazin-1-yl)propyl)-7-chloroquinolin-4-amine], the IC50 is 7 nM in the series with P. falciparum Dd2 (CQR) (setting [3]), 2.4 nM in the series on P. falciparum D6 (CQS) (setting [4]) and 9 nM with P. falciparum 7G8 (CQR) (setting [5]).
Regarding `Clc1ccc2c(NCCCN3CCN(CCc4ccccc4)CC3)ccnc2c1` [Compound 18, 7-Chloro-N-(3-(4-phenethylpiperazin-1-yl)propyl)quinolin-4-amine], the IC50 in the series with P. falciparum Dd2 (CQR) (setting [3]) came to 1 nM; with P. falciparum D6 (CQS) (setting [4]), 0.5 nM; with P. falciparum 7G8 (CQR) (setting [5]) it was 1.2 nM.
The like results for `Clc1ccc2c(NCCCN3CCN(Cc4cccc5ccccc45)CC3)ccnc2c1` [Compound 19, 7-Chloro-N-(3-(4-(naphthalen-1-ylmethyl)piperazin-1-yl)propyl)quinolin-4-amine] were, in that order, 1.1 nM, 1.1 nM and 0.8 nM.
Take `O=C(c1ccccc1)N1CCN(CCCNc2ccnc3cc(Cl)ccc23)CC1` [Compound 20, N-(3-(4-Benzoylpiperazin-1-yl)propyl)-7-chloroquinolin-4-amine]: the results for the IC50 with P. falciparum Dd2 (CQR) (setting [3]), in the series on P. falciparum D6 (CQS) (setting [4]) and in the series with P. falciparum 7G8 (CQR) (setting [5]) were 7 nM, 4 nM and 7 nM, respectively.
As for `Clc1ccc2c(NCCCN3CCN(c4ccccn4)CC3)ccnc2c1` [Compound 21, 7-Chloro-N-(3-(4-(pyridin-2-yl)piperazin-1-yl)propyl)quinolin-4-amine], the results for the IC50 with P. falciparum Dd2 (CQR) (setting [3]), in the series with P. falciparum D6 (CQS) (setting [4]) and with P. falciparum 7G8 (CQR) (setting [5]) were 1.1 nM, 0.7 nM and 0.9 nM, respectively. Besides, the Toxicity observation result in series [1] is “Well tolerated at 435 mg/kg”. Besides, in the series with mouse spleen lymphocytes, the Cytotoxicity was 13,300 nM. Besides, the ED50 in the series on P. yoelii is reported as 6 mg/kg/day.
For the compound `Clc1ccc2c(NCCCN3CCN(c4ccncc4)CC3)ccnc2c1` [Compound 22, 7-Chloro-N-(3-(4-(pyridin-4-yl)piperazin-1-yl)propyl)quinolin-4-amine], the IC50 in the series on P. falciparum Dd2 (CQR) (setting [3]) worked out at 1.6 nM; in the series on P. falciparum D6 (CQS) (setting [4]), 0.5 nM; in the series with P. falciparum 7G8 (CQR) (setting [5]), 1.1 nM.
For `Clc1ccc2c(NCCCN3CCN(c4ncccn4)CC3)ccnc2c1` [Compound 23, 7-Chloro-N-(3-(4-(pyrimidin-2-yl)piperazin-1-yl)propyl)quinolin-4-amine], the values for the IC50 in the series on P. falciparum Dd2 (CQR) (setting [3]) and in the series with P. falciparum D6 (CQS) (setting [4]) were 2.3 nM and 1.4 nM, respectively. Further, in the series on mouse spleen lymphocytes, the Cytotoxicity is reported as 28,000 nM. In addition, the ED50 with P. yoelii is given as 7 mg/kg/day.
For the compound `O=[N+]([O-])c1ccc(N2CCN(CCCNc3ccnc4cc(Cl)ccc34)CC2)nc1` [Compound 24, 7-Chloro-N-(3-(4-(5-nitropyridin-2-yl)piperazin-1-yl)propyl)quinolin-4-amine], the IC50 with P. falciparum Dd2 (CQR) (setting [3]) turned out to be 0.5 nM; in the series with P. falciparum D6 (CQS) (setting [4]), 0.3 nM; in the series with P. falciparum 7G8 (CQR) (setting [5]), 0.5 nM. In series [1], the Toxicity observation entry was “Well tolerated at 153 mg/kg^c”. Moreover, the ED50 in the series with P. yoelii is given as 3 mg/kg/day.
As for `FC(F)(F)c1ccc(N2CCN(CCCNc3ccnc4cc(Cl)ccc34)CC2)nc1` [Compound 25, 7-Chloro-N-(3-(4-(5-(trifluoromethyl)pyridin-2-yl)piperazin-1-yl)propyl)quinolin-4-amine], the IC50 with P. falciparum Dd2 (CQR) (setting [3]) is 0.9 nM; with P. falciparum D6 (CQS) (setting [4]), 0.5 nM; in the series with P. falciparum 7G8 (CQR) (setting [5]), 1 nM.
For `O=[N+]([O-])c1cnc(N2CCN(CCCNc3ccnc4cc(Cl)ccc34)CC2)c([N+](=O)[O-])c1` [Compound 26, 7-Chloro-N-(3-(4-(3,5-dinitropyridin-2-yl)piperazin-1-yl)propyl)quinolin-4-amine], in that order: 0.9 nM, 0.5 nM and 0.9 nM.
As for `O=[N+]([O-])c1ccc(N2CCN(CCCNc3ccnc4cc(Cl)ccc34)CC2)c([N+](=O)[O-])c1` [Compound 27, 7-Chloro-N-(3-(4-(2,4-dinitrophenyl)piperazin-1-yl)propyl)quinolin-4-amine], the results for the IC50 in the series with P. falciparum Dd2 (CQR) (setting [3]), in the series on P. falciparum D6 (CQS) (setting [4]) and in the series on P. falciparum 7G8 (CQR) (setting [5]) were 0.5 nM, 0.3 nM and 0.4 nM, respectively.
